Test results taken from patent US7504537B2, “Hydroxamic acid derivative and MMP inhibitor containing the same as active ingredient” (Dainippon Sumitomo Pharma Co., Ltd., priority 2001, dated 2009).

System: degeneration of cartilage
Experiment: Test 8 Rat meniscectomy model test (in vivo)
Conditions: male SD (IGS) rats, 50 mg/kg orally once a day for 3 weeks; injured group = 100%
Description: Test 8 Rat Meniscectomy Model Test (in vivo)
For this test male rats (6 weeks old SD (IGS)) were used. A meniscus of joint of a right hind limb was partially removed. Compound of Example 2 was orally administered for 3 weeks once a day in the amount of 50 mg/kg. The tissue speciman of the joint was prepared, and stained with safranin O/first green, and the degeneration of cartilage was evaluated. The degree of the degeneration of cartilage in the test compound group was calculated as 100% of the degree of that in the injured group. Cartilage degeneration rate was 33% (*; p<0.05, Steel-test)

**Q.** How did the Cartilage degeneration rate turn out when `CC(C)CN(C1(C(=O)NO)CCCC1)S(=O)(=O)c1ccc(Oc2ccc(S(C)(=O)=O)cc2)cc1` [Example 2, N-hydroxy 1-[isobutyl({4-[4-(methylsulfonyl)phenoxy]phenyl}sulfonyl)amino]cyclopentanecarboxamide] was run?
**A.** 33%
